Among the data in patent US20260028365A1 (BIOGEN MA INC., priority 2022, published 2026) are IC50 values, retold here.

The first test deals with Tyk2 (Homo sapiens (Human), UniProt P29597). Kind of test: pSTAT4 Cell Assay (MSD, NK92 cells). In kind it is cell-based.
Chain of Tyk2 (P29597 whole entry): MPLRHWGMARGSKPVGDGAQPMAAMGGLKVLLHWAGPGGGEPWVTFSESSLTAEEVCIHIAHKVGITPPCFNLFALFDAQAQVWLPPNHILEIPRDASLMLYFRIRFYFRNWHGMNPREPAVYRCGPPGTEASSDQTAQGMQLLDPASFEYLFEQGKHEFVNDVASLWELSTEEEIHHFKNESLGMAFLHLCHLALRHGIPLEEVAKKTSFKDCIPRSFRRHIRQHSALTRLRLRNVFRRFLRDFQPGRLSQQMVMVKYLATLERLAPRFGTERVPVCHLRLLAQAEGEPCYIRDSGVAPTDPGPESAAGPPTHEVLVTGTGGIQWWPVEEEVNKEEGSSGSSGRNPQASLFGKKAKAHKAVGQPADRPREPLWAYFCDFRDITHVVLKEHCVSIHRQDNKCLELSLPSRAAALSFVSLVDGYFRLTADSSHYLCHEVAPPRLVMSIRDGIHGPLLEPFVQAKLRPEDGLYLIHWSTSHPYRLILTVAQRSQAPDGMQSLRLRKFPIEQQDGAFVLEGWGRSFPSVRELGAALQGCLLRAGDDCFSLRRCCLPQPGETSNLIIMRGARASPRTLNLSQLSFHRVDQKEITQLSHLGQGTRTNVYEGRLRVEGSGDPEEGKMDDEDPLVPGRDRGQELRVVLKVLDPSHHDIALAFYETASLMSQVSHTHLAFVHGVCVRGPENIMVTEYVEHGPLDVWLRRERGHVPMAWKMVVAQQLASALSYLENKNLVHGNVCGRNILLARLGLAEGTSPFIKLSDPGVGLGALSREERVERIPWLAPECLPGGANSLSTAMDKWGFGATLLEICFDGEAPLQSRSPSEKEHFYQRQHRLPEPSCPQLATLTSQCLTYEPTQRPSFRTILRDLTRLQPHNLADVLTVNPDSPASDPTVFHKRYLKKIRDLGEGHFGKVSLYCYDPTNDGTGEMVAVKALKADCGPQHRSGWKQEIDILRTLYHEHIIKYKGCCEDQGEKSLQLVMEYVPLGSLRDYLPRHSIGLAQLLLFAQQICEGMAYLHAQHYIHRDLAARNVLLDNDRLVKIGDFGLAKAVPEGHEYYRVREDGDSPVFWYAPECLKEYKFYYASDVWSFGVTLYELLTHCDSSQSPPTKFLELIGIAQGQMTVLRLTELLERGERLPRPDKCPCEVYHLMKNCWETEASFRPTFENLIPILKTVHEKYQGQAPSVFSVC
Conditions: not given
What is called IC50 is the midpoint of a concentration-inhibition curve. Low readings indicate higher potency, high ones lower potency. For `CCc1cc(Nc2cc(NC(C)=O)ncc2-c2ccc(CN3CCCC3)cn2)nc(C(C)(F)F)n1` [Example 901, N-(4′-((2-(1,1-difluoroethyl)-6-ethylpyrimidin-4-yl)amino)-5-(pyrrolidin-1-ylmethyl)-[2,3′-bipyridin]-6′-yl)acetamide], the IC50 was at most 10 nM.

`CCc1cc(Nc2cc(NC(C)=O)ncc2-c2cnc(CN3CCOCC3)cn2)nc(C(C)(F)F)n1` [Example 899, N-(4-((2-(1,1-difluoroethyl)-6-ethylpyrimidin-4-yl)amino)-5-(5-(morpholinomethyl)pyrazin-2-yl)pyridin-2-yl)acetamide] had an IC50 of 10 to 100 nM.

On to `CCc1cc(Nc2cc(NC(C)=O)ncc2-c2ccc(F)c(CN3CCOCC3)n2)nc(C(C)(F)F)n1` [Example 910, N-(4′-((2-(1,1-difluoroethyl)-6-ethylpyrimidin-4-yl)amino)-5-fluoro-6-(morpholinomethyl)-[2,3′-bipyridin]-6′-yl)acetamide], for which the IC50 is at most 10 nM.

As for `CC(=O)Nc1cc(Nc2cc(C)nc(C(C)(F)F)n2)c(-c2ccc(P(C)(C)=O)nn2)cn1` [Example 917, N-(4-((2-(1,1-difluoroethyl)-6-methylpyrimidin-4-yl)amino)-5-(6-(dimethylphosphoryl)pyridazin-3-yl)pyridin-2-yl)acetamide], the IC50 lay within 10 to 100 nM.

On to `CCc1cc(Nc2cc(NC(C)=O)ncc2-c2ccc(CN3C[C@@H]4C[C@H]3CO4)cn2)nc(C(C)(F)F)n1` [Example 902, N-(5-(((1S,4S)-2-oxa-5-azabicyclo[2.2.1]heptan-5-yl)methyl)-4′-((2-(1,1-difluoroethyl)-6-ethylpyrimidin-4-yl)amino)-[2,3′-bipyridin]-6′-yl)acetamide], for which the IC50 is at most 10 nM.

Take `CCc1cc(Nc2cc(NC(C)=O)ncc2-c2ncc(CN3CCCC3)cn2)nc(C(C)(F)F)n1` [Example 903, N-(4-((2-(1,1-difluoroethyl)-6-ethylpyrimidin-4-yl)amino)-5-(5-(pyrrolidin-1-ylmethyl)pyrimidin-2-yl)pyridin-2-yl)acetamide]: the IC50 is 100 to 1000 nM.

For the compound `CCc1cc(Nc2cc(NC(C)=O)ncc2-c2ccc(F)c(CN3C[C@H]4C[C@@H]3CO4)n2)nc(C(C)(F)F)n1` [Example 908, N-(6-(((1R,4R)-2-oxa-5-azabicyclo[2.2.1]heptan-5-yl)methyl)-4′-((2-(1,1-difluoroethyl)-6-ethylpyrimidin-4-yl)amino)-5-fluoro-[2,3′-bipyridin]-6′-yl)acetamide], the IC50 is at most 10 nM.

`CC(=O)Nc1cc(Nc2cc(C)nc(C(C)(F)F)n2)c(-c2ccc(P(C)(C)=O)cn2)cn1` [Example 916, N-(4′-((2-(1,1-difluoroethyl)-6-methylpyrimidin-4-yl)amino)-5-(dimethylphosphoryl)-[2,3′-bipyridin]-6′-yl)acetamide] displayed an IC50 of at most 10 nM.

Still in this test, the particulars now being: MSD.
On to `CC(=O)Nc1cc(Nc2cc(C)nc(C(C)(F)F)n2)c(OCc2cc(C)no2)cn1` [Example 121, N-(4-((2-(1,1-difluoroethyl)-6-methylpyrimidin-4-yl)amino)-5-((3-methylisoxazol-5-yl)methoxy)pyridin-2-yl)acetamide], for which the IC50 is 10 to 100 nM.

`COc1ccc(Oc2cnc(NC(C)=O)cc2Nc2cc(C)nc(C(C)(F)F)n2)nn1` [Example 358, N-(4-((2-(1,1-difluoroethyl)-6-methylpyrimidin-4-yl)amino)-5-((6-methoxypyridazin-3-yl)oxy)pyridin-2-yl)acetamide] registered an IC50 of at least 1000 nM.

The compound `CC(=O)Nc1cc(Nc2cc(C)nc(C(C)(F)F)n2)c(OCC(=O)N(C)C)cn1` [Example 103, 2-((6-acetamido-4-((2-(1,1-difluoroethyl)-6-methylpyrimidin-4-yl)amino)pyridin-3-yl)oxy)-N,N-dimethylacetamide] yielded an IC50 of 100 to 1000 nM.

As to `COc1cnc(C(C)(F)F)nc1Nc1cc(NC(C)=O)ncc1-c1ccn(C)n1` [Example 590, N-(4-((2-(1,1-difluoroethyl)-5-methoxypyrimidin-4-yl)amino)-5-(1-methyl-1H-pyrazol-3-yl)pyridin-2-yl)acetamide], the IC50 fell in the range of 10 to 100 nM.

In turn, `CC(=O)Nc1cc(Nc2cc(C)nc(C(C)(F)F)n2)c(-c2ccc(C(F)F)nn2)cn1` [Example 546, N-(4-((2-(1,1-difluoroethyl)-6-methylpyrimidin-4-yl)amino)-5-(6-(difluoromethyl)pyridazin-3-yl)pyridin-2-yl)acetamide] registered a concentration for half-maximal inhibition (IC50) of at most 10 nM.

Regarding `COCCOc1cc(Nc2cc(NC(C)=O)ncc2-c2ccn(C)n2)nc(C(C)(F)F)n1` [Example 207, N-(4-((2-(1,1-difluoroethyl)-6-(2-methoxyethoxy)pyrimidin-4-yl)amino)-5-(1-methyl-1H-pyrazol-3-yl)pyridin-2-yl)acetamide], the IC50 was at most 10 nM.

`CC(=O)Nc1cc(Nc2cc(C)nc(C(C)(F)F)n2)c(OCCC(F)F)cn1` [Example 104, N-(4-((2-(1,1-difluoroethyl)-6-methylpyrimidin-4-yl)amino)-5-(3,3-difluoropropoxy)pyridin-2-yl)acetamide] registered an IC50 of 10 to 100 nM.

Consider `CNC(=O)COc1cnc(NC(C)=O)cc1Nc1cc(C)nc(C(C)(F)F)n1` [Example 102, 2-((6-acetamido-4-((2-(1,1-difluoroethyl)-6-methylpyrimidin-4-yl)amino)pyridin-3-yl)oxy)-N-methylacetamide], for which the IC50 was 10 to 100 nM.

In turn, `COc1cnc(C(C)(F)F)nc1Nc1cc(NC(C)=O)ncc1C1CC1` [Example 143, N-(5-cyclopropyl-4-((2-(1,1-difluoroethyl)-5-methoxypyrimidin-4-yl)amino)pyridin-2-yl)acetamide] came in with an IC50 of at least 1000 nM.

For the compound `COc1ccc(COc2cnc(NC(C)=O)cc2Nc2cc(C)nc(C(C)(F)F)n2)nc1` [Example 127, N-(4-((2-(1,1-difluoroethyl)-6-methylpyrimidin-4-yl)amino)-5-((5-methoxypyridin-2-yl)methoxy)pyridin-2-yl)acetamide], the half-maximal inhibitory concentration (IC50) was at most 10 nM.

For `CC(=O)Nc1cc(Nc2cc(C)nc(C(C)(F)F)n2)c(OCc2cc(C)cc(C)n2)cn1` [Example 123, N-(4-((2-(1,1-difluoroethyl)-6-methylpyrimidin-4-yl)amino)-5-((4,6-dimethylpyridin-2-yl)methoxy)pyridin-2-yl)acetamide], the 50% inhibitory concentration (IC50) is 10 to 100 nM.

In turn, `CC(=O)Nc1cc(Nc2ccnc(C(C)(F)F)n2)c(-c2cnc(C)cn2)cn1` [Example 693, N-(4-((2-(1,1-difluoroethyl)pyrimidin-4-yl)amino)-5-(5-methylpyrazin-2-yl)pyridin-2-yl)acetamide] had an IC50 of 10 to 100 nM.

`CC(=O)Nc1cc(Nc2cc(C)nc(C(C)(F)F)n2)c(OCCOC(C)(C)C)cn1` [Example 113, N-(5-(2-(tert-butoxy)ethoxy)-4-((2-(1,1-difluoroethyl)-6-methylpyrimidin-4-yl)amino)pyridin-2-yl)acetamide] displayed an IC50 of at most 10 nM.

`CC(=O)Nc1cc(Nc2cc(C)nc(C(C)(F)F)n2)c(OCC2(C)CC2)cn1` [Example 58, N-(4-((2-(1,1-difluoroethyl)-6-methylpyrimidin-4-yl)amino)-5-((1-methylcyclopropyl)methoxy)pyridin-2-yl)acetamide]: the IC50 was in the range of 10 to 100 nM.

Regarding `CC(=O)Nc1cc(Nc2cc(C)nc(C(C)(F)F)n2)c(OCc2cnco2)cn1` [Example 122, N-(4-((2-(1,1-difluoroethyl)-6-methylpyrimidin-4-yl)amino)-5-(oxazol-5-ylmethoxy)pyridin-2-yl)acetamide], the IC50 is at most 10 nM.

As to `CC(=O)Nc1cc(Nc2cc(C)nc(C(C)(F)F)n2)c(-c2cc3n(n2)CC(C)N(C)C3)cn1` (stereo not shown) [Example 548, N-(4-((2-(1,1-difluoroethyl)-6-methylpyrimidin-4-yl)amino)-5-(5,6-dimethyl-4,5,6,7-tetrahydropyrazolo[1,5-a]pyrazin-2-yl)pyridin-2-yl)acetamide], the IC50 is at most 10 nM.

Consider `COc1ccnc(COc2cnc(NC(C)=O)cc2Nc2cc(C)nc(C(C)(F)F)n2)c1` [Example 128, N-(4-((2-(1,1-difluoroethyl)-6-methylpyrimidin-4-yl)amino)-5-((4-methoxypyridin-2-yl)methoxy)pyridin-2-yl)acetamide], for which the IC50 fell in the range of 10 to 100 nM.

As for `CC(=O)Nc1cc(Nc2cc(C)nc(C(C)(F)F)n2)c(OCc2ccnc(F)c2)cn1` [Example 120, N-(4-((2-(1,1-difluoroethyl)-6-methylpyrimidin-4-yl)amino)-5-((2-fluoropyridin-4-yl)methoxy)pyridin-2-yl)acetamide], the IC50 lay in the range of 10 to 100 nM.

Turning to `COCCOc1cc(-c2cnc(NC(C)=O)cc2Nc2cc(C)nc(C(C)(F)F)n2)ncn1` [Example 249, N-(4-((2-(1,1-difluoroethyl)-6-methylpyrimidin-4-yl)amino)-5-(6-(2-methoxyethoxy)pyrimidin-4-yl)pyridin-2-yl)acetamide], the IC50 was in the range of 10 to 100 nM.

`CC(=O)Nc1cc(Nc2ccnc(C(C)(F)F)n2)c(-c2cccc(C(C)(C)C#N)n2)cn1` [Example 653, N-(6-(2-cyanopropan-2-yl)-4′-((2-(1,1-difluoroethyl)pyrimidin-4-yl)amino)-[2,3′-bipyridin]-6′-yl)acetamide] showed a 50% inhibitory concentration (IC50) of 10 to 100 nM.

Compound `CC(=O)Nc1cc(Nc2cc(C)nc(C(C)(F)F)n2)c(-c2cc3n(n2)C(O)CN(C)C3)cn1` (stereo not shown) [Example 224, N-(4-((2-(1,1-difluoroethyl)-6-methylpyrimidin-4-yl)amino)-5-(7-hydroxy-5-methyl-4,5,6,7-tetrahydropyrazolo[1,5-a]pyrazin-2-yl)pyridin-2-yl)acetamide] returned an IC50 of at most 10 nM.

`CC(=O)Nc1cc(Nc2cc(C)nc(C(C)(F)F)n2)c(OCC23CC(C2)C3)cn1` [Example 100, N-(5-(bicyclo[1.1.1]pentan-1-ylmethoxy)-4-((2-(1,1-difluoroethyl)-6-methylpyrimidin-4-yl)amino)pyridin-2-yl)acetamide]: the IC50 was at most 10 nM.

`CC(=O)Nc1cc(Nc2cc(C)nc(C34COC(C3)C4)n2)c(-c2cc3n(n2)CCN(C)C3)cn1` [Example 141, N-(4-((2-(2-oxabicyclo[2.1.1]hexan-4-yl)-6-methylpyrimidin-4-yl)amino)-5-(5-methyl-4,5,6,7-tetrahydropyrazolo[1,5-a]pyrazin-2-yl)pyridin-2-yl)acetamide] came in with an IC50 of at most 10 nM.
